Test results taken from article PMC10221469 (Viruses, 2023).

Test system: SARS-CoV-2 pseudovirus (lentiviral vector, spike D614G)
Format: cell-based
Details: read-out: IC50 pseudovirus entry (luciferase output)

Row | SMILES | IC50
1 | C#CCC(Cc1cnc2nc(N)nc(N)c2n1)c1ccc(C(=O)N[C@@H](CCC(=O)O)C(=O)O)cc1 (some centres unmarked) [Pralatrexate] | 12.1 nM
2 | COc1cc(NCc2ccc3nc(N)nc(N)c3c2C)cc(OC)c1OC [Trimetrexate] | 225 nM
